Patent publication US6544992B1, “Urotensin-II receptor antagonists” (SmithKline Beecham Corporation, priority 1999, dated 2003)

Columns and labels:
rat-isolated aorta = conditions: cited from earlier work
human and rat GPR-14 = assay: Radioligand binding, [125I] h-U-II on HEK-293 cell membranes; conditions: radioligand binding assay; species of GPR-14 not given
Protocol: HEK-293 cell membranes containing stable cloned human and rat GPR-14 (20 ug/assay) were incubated with 200 pM [125I] h-U-II (200 Ci/mmol^−1 in the presence of increasing concentrations of test compounds in DMSO (0.1 nM to 10 uM), in a final incubation volume of 200 ul (20 mM Tris-HCl, 5 mM MgCl2). Incubation was done for 30 minutes at room temperature followed by filtration GF/B filters with Brandel cell harvester. ^125I labeled U-II binding was quantitated by gamma counting. Nonspecific binding was defined by ^125I U-II binding in the presence of 100 nM of unlabeled human U-II. Analysis of the data was performed by nonlinear least square fitting.

Row | Compound | contractile activity (rat-isolated aorta) | Ki (human and rat GPR-14)
1 | CC(C)[C@H](NC(=O)[C@@H]1CSSC[C@H](NC(=O)[C@H](CC(=O)O)NC(=O)[C@@H]2CCCN2C(=O)[C@@H](NC(=O)[C@@H](N)CCC(=O)O)[C@@H](C)O)C(=O)N[C@@H](Cc2ccccc2)C(=O)N[C@@H](Cc2c[nH]c3ccccc23)C(=O)N[C@@H](CCCCN)C(=O)N[C@@H](Cc2ccc(O)cc2)C(=O)N1)C(=O)O [Human Urotensin-II] | most potent contractile agonist identified to date | –
2 | O=C(NC1CCN(Cc2ccc(OCCN3CCCC3)c3ccccc23)C1)c1ccc(Cl)c(Cl)c1 (centres unmarked) [Example 13] | – | 360 nM
